{"source": "patent US7247612B2", "about": "“Methods of treating an inflammatory disease with a JJT-1 polypeptide” (Japan Tobacco Inc., priority 1997, dated 2007)", "tested_on": "rat lymphoblast cells activated with concanavalin A", "test": "Aggregation of concanavalin A-activated rat lymphoblast cells", "format": "cell-based", "conditions": "ConA-activated rat lymphoblasts", "protocol": "The hybridomas prepared in Example 1 were screened by analyzing the effect of the antibodies produced in the culture supernatant of the hybridomas on FTL435 cells, which were used as the immunogen. FTL435 cells (5×10^6 cells/ml, 0.1 ml) were seeded into each well of a 96-well microtiter plate and cultivated at 37° C. for an hour in the presence of culture supernatant of each hybridoma (10 μg/ml each).\nIn order to determine whether the aggregation of FTL435 cells induced by “JTT-1 antibody” stimulation was caused by the cell adhesion between intercellular adhesion molecule-1 (ICAM-1) and lymphocyte function-associated antigen-1 (LFA-1), which is a representative known pathway of cell adhesion, FTL435 cells were cultivated at 37° C. for an hour in the presence of anti-rat ICAM-1 antibody 1A29 (10 μg/ml; IgG1) or anti-rat LFA-1 antibody (10 μg/ml; IgG2a) together with “JTT-1 antibody.”\nIn order to further analyze the cell agglutination ability of “JTT-1 antibody,” the ability to agglutinate rat lymphoblast cells activated with concanavalin A stimulation was analyzed in the same manner as mentioned above.", "data": [{"compound": "CCCCCCCCCCCCCC(=O)O[C@@H]1[C@@H](C)[C@@]2(O)[C@@H](C=C(CO)C[C@]3(O)C(=O)C(C)=C[C@@H]23)[C@@H]2C(C)(C)[C@]12OC(C)=O", "note": "[phorbol myristate acetate]", "values": [{"measurement": "Aggregation of activated lymphoblast cells", "result": "no aggregation through cell adhesion unless they receive the stimulation"}]}]}
